The numbers were not newly measured in EP2697366B1, “B[…] THE PRESERVATION OF CELLULAR FUN[…] CLINICAL CELL THERAPY” (Johann Wolfgang Goethe-Universität, Frankfurt am Main, priority 2011, dated 2018), which cites them from elsewhere.

For data set [1] the following is noted: in vivo.
For data set [2] the following is noted: two large clinical studies.

With `CC[C@H](C)[C@H](NC(=O)[C@H](CCC(=O)O)NC(=O)[C@H](CCC(=O)O)NC(=O)[C@H](Cc1ccccc1)NC(=O)[C@H](CC(=O)O)NC(=O)CNC(=O)[C@H](CC(N)=O)NC(=O)CNC(=O)CNC(=O)CNC(=O)CNC(=O)[C@@H]1CCCN1C(=O)[C@H](CCCNC(=N)N)NC(=O)[C@@H]1CCCN1C(=O)[C@H](N)Cc1ccccc1)C(=O)N1CCC[C@H]1C(=O)N[C@@H](CCC(=O)O)C(=O)N[C@@H](CCC(=O)O)C(=O)N[C@@H](Cc1ccc(O)cc1)C(=O)N[C@@H](CC(C)C)C(=O)O` [Bivalirudin], the Eliminationshalbwertszeit entry in data set [1] is “ca. 25 Minuten”. Besides, the “schwere Blutungskomplikationen” value in data set [2] was “hochsignifikanten Reduktion schwerer Blutungskomplikationen”.
